Data reported in PubChem BioAssay AID248 (DTP/NCI, 2004).
Several values for one entry are separate records, joined by “and”; a condition that tells them apart may be missing. Equal values may be shown once. Inconclusive results and toxic doses are left out. No stated cut-off is given here; in the data, active means T/C of 150% or more; inactive means T/C below 125%.

Test system: L1210 leukemia ip in BDF1 mice, survival T/C
Assay: NCI In Vivo Anticancer Drug Screen. Data for tumor model L1210 Leukemia (intraperitoneal) in B6D2F1 (BDF1) mice
Settings: endpoint: mean survival time, higher = longer survival
Summary of the method: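 Mice bearing the transplanted tumor received compound or vehicle. Survival of the treated group was divided by that of the vehicle-treated control group to give the ratio.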

[1] = dose: 100.0 mg/kg/injection, schedule: Q01DX009 (ip), vehicle: saline with Tween-80
[2] = dose: 200.0 mg/kg/injection, schedule: Q01DX009 (ip), vehicle: saline with Tween-80
[3] = dose: 100.0 mg/kg/injection, schedule: Q04DX003 (ip), vehicle: saline with Tween-80
[4] = dose: 400.0 mg/kg/injection, schedule: Q04DX003 (ip), vehicle: saline with Tween-80
[5] = dose: 200.0 mg/kg/injection, schedule: Q04DX003 (ip), vehicle: saline with Tween-80
[6] = dose: 100.0 mg/kg/injection, schedule: Q04DX002 (ip), vehicle: Klucel (hydroxypropylcellulose) (HPC)
[7] = dose: 200.0 mg/kg/injection, schedule: Q04DX002 (ip), vehicle: Klucel (hydroxypropylcellulose) (HPC)
[8] = dose: 400.0 mg/kg/injection, schedule: Q04DX002 (ip), vehicle: Klucel (hydroxypropylcellulose) (HPC)
[9] = dose: 100.0 mg/kg/injection, schedule: Q01DX001 (ip), vehicle: saline
[10] = dose: 200.0 mg/kg/injection, schedule: Q01DX001 (ip), vehicle: saline
[11] = dose: 400.0 mg/kg/injection, schedule: Q01DX001 (ip), vehicle: saline
[12] = dose: 100.0 mg/kg/injection, schedule: Q01DX001 (ip), vehicle: saline with Tween-80
[13] = dose: 100.0 mg/kg/injection, schedule: Q01DX001 (ip), vehicle: Klucel (hydroxypropylcellulose) (HPC)
[14] = dose: 200.0 mg/kg/injection, schedule: Q01DX001 (ip), vehicle: Klucel (hydroxypropylcellulose) (HPC)
[15] = dose: 400.0 mg/kg/injection, schedule: Q01DX001 (ip), vehicle: Klucel (hydroxypropylcellulose) (HPC)
[16] = dose: 50.0 mg/kg/injection, schedule: Q01DX001 (ip), vehicle: saline
[17] = dose: 100.0 mg/kg/injection, schedule: Q01DX009 (ip), vehicle: Klucel (hydroxypropylcellulose) (HPC)
[18] = dose: 200.0 mg/kg/injection, schedule: Q01DX009 (ip), vehicle: Klucel (hydroxypropylcellulose) (HPC)
[19] = dose: 400.0 mg/kg/injection, schedule: Q01DX009 (ip), vehicle: Klucel (hydroxypropylcellulose) (HPC)

Measured: T/C

O=C(O)c1ccc(OCC(=O)c2ccccc2)cc1
inactive: [1] 98 % of control | [2] 89 % of control

NC(=O)c1ccc(OC(F)(F)C(F)Cl)cc1OC(F)(F)C(F)Cl (stereo not given)
inactive: [3] 98 % of control | [4] 102 % of control

COc1ccc(/C(C)=C\C(=O)O)cc1
inactive: [1] 96 % of control | [3] 107 % of control | [2] 102 % of control | [5] 113 % of control | dose: 400.0 mg/kg/injection, schedule: Q01DX009 (ip), vehicle: saline with Tween-80 101 % of control | [4] 115 % of control

CCOC(=O)C(=CNc1cc(N)nc(SC)n1)C(=O)OCC
inactive: [6] 114 % of control | [7] 103 % of control | [8] 100 % of control

Cc1ccc(S(=O)(=O)N(CC(=O)O)c2ccccc2-c2ccccc2)cc1
inactive: [9] 100 % of control | [10] 89 % of control | [11] 100 % of control

COC(=O)/C(=C\c1ccccc1)CN1CCCCC1
inactive: dose: 25.0 mg/kg/injection, schedule: Q01DX001 (ip), vehicle: saline with Tween-80 101 % of control | dose: 50.0 mg/kg/injection, schedule: Q01DX001 (ip), vehicle: saline with Tween-80 93 % of control | [12] 104 % of control

O=S(=O)(CC(Cl)c1ccccc1)c1ccc(Br)cc1 (stereo not given)
inactive: [9] 94 % of control | dose: 100.0 mg/kg/injection, schedule: Q04DX003 (ip), vehicle: saline 94 % of control | [10] 92 % of control | dose: 200.0 mg/kg/injection, schedule: Q04DX003 (ip), vehicle: saline 96 % of control | [11] 92 % of control | dose: 400.0 mg/kg/injection, schedule: Q04DX003 (ip), vehicle: saline 94 % of control

CCOC(=O)c1cn2ccc3ccccc3c2n1
inactive: [13] 103 % of control | [14] 98 % of control | [15] 98 % of control

Cc1ccc(/C=C\C(=O)OCCCCOC(=O)/C=C/c2ccc(C)cc2)cc1
inactive: [16] 97 % of control | [9] 95 % of control | [10] 91 % of control | [11] 95 % of control

CN(C)C(=S)Sc1ccc([N+](=O)[O-])cc1[N+](=O)[O-]
inactive: [12] 96 % of control | [17] 91 % of control | dose: 200.0 mg/kg/injection, schedule: Q01DX001 (ip), vehicle: saline with Tween-80 100 % of control | [18] 93 % of control | dose: 400.0 mg/kg/injection, schedule: Q01DX001 (ip), vehicle: saline with Tween-80 100 % of control | dose: 400.0 mg/kg/injection, schedule: Q04DX003 (ip), vehicle: Klucel (hydroxypropylcellulose) (HPC) 86 % of control

O=NN1CCCCC1
inactive: [16] 93 % of control | [9] 104 % of control | [10] 96 % of control

O=C(/C=C/C=C\c1ccccc1)/C=C/C=C/c1ccccc1
inactive: [13] 91 % of control | [17] 92 % of control | [14] 93 % of control | [18] 92 % of control | [15] 93 % of control | [19] 89 % of control

Cc1ccc(NC(=O)Nc2cccc(Cl)c2)c(C)c1
inactive: [17] 86 % of control | [18] 94 % of control | [19] 87 % of control

Cc1cc(C)c2c(c1)C(=O)C(=O)c1cc(C)cc(C)c1-2
inactive: dose: 50.0 mg/kg/injection, schedule: Q04DX002 (ip), vehicle: Klucel (hydroxypropylcellulose) (HPC) 95 % of control | [6] 94 % of control and 92 % of control | [7] 98 % of control | [8] 116 % of control and 88 % of control

CNC(=O)Nc1ccc(Nc2ccccc2)cc1
inactive: [6] 105 % of control | [7] 97 % of control | [8] 91 % of control

CC(C1CCC/C(=N\NC(N)=O)C1)[N+](=O)[O-] (stereo not given)
inactive: dose: 25.0 mg/kg/injection, schedule: Q01DX009 (ip), vehicle: saline with Tween-80 95 % of control | dose: 50.0 mg/kg/injection, schedule: Q01DX009 (ip), vehicle: saline with Tween-80 104 % of control | [1] 89 % of control | [3] 90 % of control | [5] 98 % of control

Clc1cccc(Cl)c1/C=N/N1CCN(/N=C/c2c(Cl)cccc2Cl)CC1
inactive: dose: 100.0 mg/kg/injection, schedule: Q01DX001 (ip), vehicle: carboxymethylcellulose (CMC) 91 % of control | dose: 200.0 mg/kg/injection, schedule: Q01DX001 (ip), vehicle: carboxymethylcellulose (CMC) 89 % of control | dose: 400.0 mg/kg/injection, schedule: Q01DX001 (ip), vehicle: carboxymethylcellulose (CMC) 91 % of control
